Among the data in patent US6946466B2, “Aromatic sulfonamides as peroxynitrite-rearrangement catalysts” (Schering AG, priority 2003, dated 2005) are Rate constant, EC50 and IC50 values, retold here.

The nature of experiment [1]: Kinetics of the conversion of peroxynitrite into nitrate by UV spectrometry (stopped flow, 301 nm). It counts as biochemical. Particulars: peroxynitrite rearrangement relative to spontaneous decomposition without catalyst; catalyst added in one-tenth the stoichiometric amount; UV 301 nm. On the procedure:
Measurement of the Kinetics of the Conversion of Peroxynitrite into Nitrate by UV Spectrometry
The following are used: a UV spectrometer • a stopped flow device with slotted-on cuvette laboratory apparatus for volumetric work reagents (buffers, peroxynitrite solution, catalysts)
The peroxynitrite content of the concentrated peroxynitrite solution is determined. A molar extinction coefficient of ε=1 670 is used as basis. The solution is diluted with water to reach an absorption of about 1.6 at the observation wavelength of 301 nm. The pH of the stock solution produced in this way should not fall below 11.
A solution of the catalyst to be investigated is prepared in phosphate buffer appropriate for the peroxynitrite concentration set, in such a way that, taking account of the given conditions in the stopped flow device, the desired amounts of catalyst solution and peroxynitrite can be brought together for reaction. The buffer of the catalyst solution must have sufficient capacity for it to be possible for the peroxynitrite solution, which is still strongly alkaline, to be adjusted to, and maintained at, the desired pH. The catalysts are added in one-tenth the stoichiometric amount (FIG. 1).
The metering syringes of the stopped flow system are charged with the two solutions and used to charge the cuvette which is present in the UV spectrometer. The absorptions at 301 nm are measured simultaneously. The rearrangement of peroxynitrite to nitrate results in the decrease in the absorption, which assumes a constant value after some time. The rearrangement is complete at this time, and the data recording is stopped.
The measured data are analyzed, and the peroxynitrite concentration can be calculated from the characteristic kinetic data of the plot resulting therefrom. […] In order to take account of the spontaneous decomposition of peroxynitrite, for each peroxynitrite preparation used initially the decomposition behavior of the peroxynitrite solution is found on addition of the buffer without catalyst content, and the relation between the characteristic data thereof and those obtained from a measurement with catalyst is found. [formula]

For experiment [2], the system named is primary neuronal cultures from neonatal rat cerebellum. Description: SIN-1 damage assay with primary neuronal cultures from neonatal rat cerebellum (Cytotoxicity assay). It counts as cell-based. Particulars: protection against SIN-1 damage, test substance 1 h before SIN-1, Alamar blue readout, read-out: Cytotoxicity assay ED50. The text has this:
SIN-1 Damage Assay with Primary Neuronal Cultures from Neonatal Rat Cerebellum
A primary culture of cells from neonatal rat cerebellum is set up for in vitro testing of substances for neuroprotection against damage induced by peroxy-nitrite. The measurement of cell death or survival of neurons in this culture takes place indirectly through a measurement of the conversion of the dye Alamar blue into its reduced fluorescent form. The peroxynitrite donor SIN-1 (3-morpholinosydnonimine) is used for the damage.
To obtain the cells, Wistar rats (P8) are sacrificed by decapitation, the cerebella are obtained, the meninges are removed from the cerebellum (HBSS (GIBCO, 14025-050) 4° C.), cut up and transferred into a 15 ml Falcon tube, the supernatant is aspirated off, and then the cerebella are trypsinized by adding 500 μl of trypsin/EDTA solution (GIBCO #2530-054)/cerebellum. After incubation (20 min, 37° C.), the trypsinized cerebella are washed 3× with 10 ml of HBSS. This is followed by tritration by addition of 500 μl of 0.05% strength DNAsel (BOEHRINGER MANNHEIM, #14953000) per cerebellum. Using a 5 ml pipette, then a flame-polished Pasteur pipette and finally (if necessary) a drawn-out flame-polished Pasteur pipette, the cells are isolated and mixed with 10 ml of complete medium (100 ml of Neurobasal (GIBCO #21103-049), 1 ml of B27 supplement (GIBCO #17504-044), 0.4 ml of pen/strep (10 000 IU/ml/10 000 UG/ml) (GIBCO #15140-160), 0.8 ml of KCl stock solution (MERCK, 1.04936.0500), 1 ml of L-glutamine (100×-200 mM) (GIBCO #15140-106). The isolated cells are then centrifuged (10 min at 600 rpm), washed 1× with complete medium and resuspended in 20 ml of complete medium, counted and diluted to 2×10^6 ml. 100 μl of complete medium are introduced into each well of a 96-well microtiter plate, and 100 μl of cell suspension are added (=day 1 in vitro). The microtiter plates are previously coated in the following way: 50 μl of poly-L-lysine (MW 70-105 kD) (SIGMA #P-6282) are applied to each well, and the plates are then incubated in an incubator for about 90 min. Before the cells are plated out, the solution is aspirated off again and washed 2× with HBSS and with sterile double-distilled water. 24 h after plating out, the cells are damaged by addition of SIN-1. Test substances are applied 1 h before addition of SIN-1 (single concentration of 10 or 30 μm, or as concentration series, CALBIOCHEM, 567028). Cell function is measured on day 2 (day2 in vitro) with Alamar blue (10 μl/well) (BIOSOURCE INT., DAL1100). Incubation for 3 hours is followed by measurement in a fluorescence reader (Victor, Wallac, extinction 544 nm/emission 590 nm). IC50 values are calculated by the Excel plug-in XLfit.

Experiment [3] in a line: DHR oxidation assay (oxidation of dihydrorhodamine to rhodamine by peroxynitrite). The class given is biochemical. The note with it: rhodamine fluorescence 485/520 nm, neutral pH. On the procedure:
Oxidation of Dihydrorhodamine to Rhodamine
The concentration of peroxynitrite is determined by reaction with dihydrorhodamine (DHR) to give rhodamine. The rhodamine fluorescence emission is measured at 520 nm after excitation with light of a wavelength of 485 nm. Catalytic conversion of peroxynitrite by a test substance leads to a decrease in the peroxynitrite concentration and thus also to a decrease in the rhodamine fluorescence, because less DHR can be converted into rhodamine. The search for peroxynitrite-degrading catalysts is carried out at neutral pH. Peroxynitrite is stable for only a few seconds at neutral pH. It is therefore necessary for peroxynitrite to be kept alkaline until contacted with the test substance and DHR as detection reagent. The search for catalysts takes place by rapid mixing of the following components:
10 μl of 10 μM DHR; • 100 μm diethylenetriaminepentaacetic acid in 75 mM Na phosphate buffer at pH 5.6
5 μl of peroxynitrite in 9 mM NaOH
0.75 μl test substance in 30% DMSO/H2O
The measurement takes place in a standard microtiter plate fluorescence measuring apparatus

Take `Cc1noc(C)c1S(=O)(=O)Nc1ccc(N2CCCC2)cc1` [Example 1, 3,5-dimethylisoxazole-4-sulfonic acid 4-pyrrolidin-1-ylphenylamide]: the Rate constant in experiment [1] was 1.1. Further, the EC50 in experiment [2] amounted to 4.4 µM. In experiment [3], this compound returned an IC50 of 1.1 µM.
In the case of `Cc1noc(C)c1S(=O)(=O)Nc1ccc(N2CCCC2)cc1C(F)(F)F` [Example 2, 3,5-dimethylisoxazole-4-sulfonic acid 4-pyrrolidin-1-yl-2-trifluoromethylphenylamide], the Rate constant in experiment [1] is reported as 1.3. In addition, the EC50 in experiment [2] is 6.6 µM. The compound also gave a 50% inhibitory concentration (IC50) in experiment [3] of 2.4 µM.
Regarding `Cc1noc(C)c1S(=O)(=O)Nc1ccc(N2CCCCC2)cc1` [Example 3, 3,5-dimethylisoxazole-4-sulfonic acid 4-piperidin-1-ylphenylamide], in experiment [1], the Rate constant was 1.4. In experiment [2], the EC50 is 5.3 µM. The IC50 in experiment [3] came to 0.95 µM.
In experiment [1], `O=S(=O)(Nc1ccc(N2CCCCC2)cc1)c1cccc2cccnc12` [Example 4, quinoline-8-sulfonic acid 4-piperidin-1-ylphenylamide] registered a Rate constant of 1.4. For the same compound, the EC50 in experiment [2] amounted to 8.7 µM. For the same compound, the half-inhibitory concentration (IC50) in experiment [3] turned out to be 1.1 µM.
Turning to `COc1cc(N2CCCC2)ccc1NS(=O)(=O)c1cccs1` [Example 5, thiophene-2-sulfonic acid 2-methoxy-4-pyrrolidin-1-ylphenylamide], the Rate constant in experiment [1] came to 1.9. Moreover, the EC50 in experiment [2] is 5.9 µM. The compound further registered an IC50 in experiment [3] of 8.1 µM.
For the compound `O=S(=O)(Nc1ccc(N2CCCC2)cc1)c1cccc2cccnc12` [Example 6, quinoline-8-sulfonic acid 4-pyrrolidin-1-ylphenylamide], in experiment [1], the Rate constant was 1.2. The EC50 in experiment [2] was found to be 5.2 µM. The compound also showed an IC50 in experiment [3] of 1.5 µM.
The corresponding values for `CN1CCN(c2ccc(NS(=O)(=O)c3cccs3)cc2)CC1` [Example 7, thiophene-2-sulfonic acid 4-(4-methyl-piperazin-1-yl)phenylamide] are 1.3, 5.7 µM and 1.9 µM.
In turn, `CN(C)c1ccc(NS(=O)(=O)c2cccs2)c([N+](=O)[O-])c1` [Example 8, thiophene-2-sulfonic acid 4-dimethylamino-2-nitrophenylamide] showed a Rate constant in experiment [1] of 1.6. Also, the EC50 in experiment [2] was 6.4 µM. The IC50 in experiment [3] amounted to 1.6 µM.
The compound `Cc1noc(C)c1S(=O)(=O)Nc1ccc(N(C)C)cc1[N+](=O)[O-]` [Example 9, 3,5-dimethylisoxazole-4-sulfonic acid 4-dimethylamino-2-nitrophenylamide] showed a Rate constant in experiment [1] of 1.6. In addition, the EC50 in experiment [2] was found to be 8.6 µM. Also, half-maximal inhibition in experiment [3] (IC50) required 2 µM.

By IC50 is commonly meant the concentration at which inhibition is half-maximal. Higher therefore signals a need for much substance.
